From US20240148821A1, “PHARMACEUTICAL USE OF CYCLIC PEPTIDE COMPOUND” (CHUGAI SEIYAKU KABUSHIKI KAISHA, priority 2021, published 2024) come the findings set out here.

Numbered stars: 1 amine (or outer) side, 2 acyl side, 3 side chain; on linkers, the order of the positions; unused ones are H or OH. Bridge positions count the residues as written; N and C are the ends. Square brackets hold non-standard residues; d marks the D form. Peptide text beside a SMILES is read from it. * marks the point of attachment. hPhe(3-Cl-4-CF3) = N[C@@H](CCc1ccc(C(F)(F)F)c(Cl)c1)C(=O)O; hPhe(3-F,4-CF3) = N[C@@H](CCc1ccc(C(F)(F)F)c(F)c1)C(=O)O; X1 = O=C([C@H](CCc1ccc(OC(F)F)c(F)c1)N[*:1])[*:2]; hPhe(4-CF3) = N[C@@H](CCc1ccc(C(F)(F)F)cc1)C(=O)O; NEtPhe(4-Me) = CCN[C@@H](Cc1ccc(C)cc1)C(=O)O; NMePhe(4-Cl) = CN[C@@H](Cc1ccc(Cl)cc1)C(=O)O; NMePhe(4-Me) = CN[C@@H](Cc1ccc(C)cc1)C(=O)O; NMedβ3hAla = C[C@H](CC(=O)[*:2])N(C)[*:1]; NMeGly(cPent) = CN[C@H](C(=O)O)C1CCCC1; mXylylene = c1cc(C[*:1])cc(C[*:2])c1; NMeGly(cBu) = CN[C@H](C(=O)O)C1CCC1; X78 = O=C(CN(CCc1cccnc1)[*:1])[*:2]; NMeCha = CN[C@@H](CC1CCCCC1)C(=O)O; cisHyp = O=C(O)[C@@H]1C[C@H](O)CN1; Hyp = O=C(O)[C@@H]1C[C@@H](O)CN1; NEtLeu = CCN[C@@H](CC(C)C)C(=O)O; NMeAhp(2) = CCCCC[C@H](NC)C(=O)O; NMeChg = CN[C@H](C(=O)O)C1CCCCC1; NMeI = CC[C@H](C)[C@H](NC)C(=O)O; NMeT = CN[C@H](C(=O)O)[C@@H](C)O; NMeD = CN[C@@H](CC(=O)O)C(=O)O; NMeL = CN[C@@H](CC(C)C)C(=O)O; NMeV = CN[C@H](C(=O)O)C(C)C; d(β3hA) = C[C@@H](N)CC(=O)O; Azetidin(1-yl) = C1CN(*)C1; NMeA = CN[C@@H](C)C(=O)O; NMeAib = CNC(C)(C)C(=O)O; Piperidide = C1CCN(*)CC1; Ac5c = NC1(C(=O)O)CCCC1; Aze = O=C(O)[C@@H]1CCN1; NBuGly = CCCCNCC(=O)O; Sar = CNCC(=O)O

The experiment concerns the target protein-protein interaction between Kras and SOS1 (biotin-tagged human Kras loaded with GDP, His-tagged human SOS1) (Homo sapiens (Human), UniProt P01116, G12D). Description: Protein-protein interaction inhibition between Kras and SOS1 (KrasG12D-SOS PPI) using AlphaScreen.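 Also: kras produced in E. coli, Ni-coupled donor beads and streptavidin acceptor beads, excitation 680 nm with emission detected at 520–620 nm via singlet oxygen transfer.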 It counts as biochemical. The following applies: AlphaScreen; biotin-tagged human Kras loaded with GDP, His-tagged human SOS1; read-out: KRAS G12D-SOS PPI IC50. For orientation: Bead proximity is the source of the signal in Alpha formats.
For `CC[C@H](C)[C@@H]1NC(=O)[C@H](CC(C)C)N(C)C(=O)C[C@@H](C(=O)N2CCCCC2)N(C)C(=O)[C@H](C2CCCCC2)N(C)C(=O)C2(CCCC2)NC(=O)CN(CCc2cccnc2)C(=O)[C@H](CCc2ccc(C(F)(F)F)c(Cl)c2)NC(=O)CN(C)C(=O)[C@H](CC2CCCCC2)N(C)C(=O)CN(C)C(=O)CN(C)C1=O` [Compound 2032] ([NMeL]I[Sar][Sar][NMeCha][Sar][hPhe(3-Cl-4-CF3)][X78][Ac5c][NMeChg][NMeD]-Piperidide; lactam N-11 (inferred); C-terminus assumed), the IC50 (usually the point on the concentration scale where inhibition reaches its midpoint) worked out at 1.2 nM. Then `CCCCC[C@H]1C(=O)N[C@@H]([C@@H](C)CC)C(=O)N(C)[C@@H](C)C(=O)N2CC[C@H]2C(=O)N(C)[C@@H](CC2CCCCC2)C(=O)N(C)CC(=O)N[C@@H](CCc2ccc(C(F)(F)F)c(Cl)c2)C(=O)N2CCC[C@H]2C(=O)NC2(CCCC2)C(=O)N(C)[C@@H](C(C)C)C(=O)N(C)[C@H](C(=O)N2CCCCC2)CC(=O)N1C` [Compound 1705] ([NMeAhp(2)]I[NMeA][Aze][NMeCha][Sar][hPhe(3-Cl-4-CF3)]P[Ac5c][NMeV][NMeD]-Piperidide; lactam N-11), with 9.8 nM. As for `CCO[C@@H]1C[C@H]2C(=O)NC3(CCCC3)C(=O)N(C)[C@@H]([C@@H](C)CC)C(=O)N(C)[C@H](C)CC(=O)N(C)[C@@H](CC(C)C)C(=O)N[C@@H]([C@@H](C)CC)C(=O)N(C)[C@@H](C)C(=O)N3CC[C@H]3C(=O)N(CC)[C@@H](Cc3ccc(C)cc3)C(=O)N(C)CC(=O)N[C@@H](CCc3ccc(C(F)(F)F)c(Cl)c3)C(=O)N2C1` [Compound 951] (cyclo([Ac5c][NMeI][NMedβ3hAla][NMeL]I[NMeA][Aze][NEtPhe(4-Me)][Sar][hPhe(3-Cl-4-CF3)][Hyp](Et))), the IC50 turned out to be 7.9 nM. Then `CC[C@H](C)[C@@H]1NC(=O)[C@H](CC(C)C)N(C)C(=O)C[C@@H](C)NC(=O)[C@H](CC(C)C)N(C)C(=O)C2(CCCC2)NC(=O)[C@H](CC(C)C)N(C)C(=O)[C@H](CCc2ccc(C(F)(F)F)cc2)NC(=O)CN(C)C(=O)[C@H](Cc2ccc(Cl)cc2)N(C)C(=O)CN(C)C(=O)CN(C)C1=O` [Compound 843] (cyclo([Ac5c][NMeL][d(β3hA)][NMeL]I[Sar][Sar][NMePhe(4-Cl)][Sar][hPhe(4-CF3)][NMeL])), with 49 nM; and `CC[C@H](C)[C@@H]1NC(=O)[C@H](C)N(C)C(=O)C[C@@H](C)NC(=O)[C@H](C(C)C)N(C)C(=O)C2(CCCC2)NC(=O)[C@@H]2CCCN2C(=O)[C@H](CCc2ccc(C(F)(F)F)c(Cl)c2)NC(=O)[C@H]2CCCN2C(=O)[C@H](CC2CCCCC2)N(C)C(=O)CN(C)C(=O)CN(C)C1=O` [Compound 412] (cyclo([Ac5c][NMeV][d(β3hA)][NMeA]I[Sar][Sar][NMeCha][dP][hPhe(3-Cl-4-CF3)]P)), with 120 nM. Then `CC[C@H](C)[C@@H]1NC(=O)[C@H](C2CCC2)N(C)C(=O)C[C@@H](C(=O)N2CCCCC2)N(C)C(=O)[C@H](C(C)C)N(C)C(=O)C2(CCCC2)NC(=O)[C@@H]2CCCN2C(=O)[C@H](CCc2ccc(C(F)(F)F)c(Cl)c2)NC(=O)CN(C)C(=O)[C@H](CC2CCCCC2)N(C)C(=O)[C@@H]2CCN2C(=O)[C@H](C)N(C)C1=O` [Compound 1036] ([NMeGly(cBu)]I[NMeA][Aze][NMeCha][Sar][hPhe(3-Cl-4-CF3)]P[Ac5c][NMeV][NMeD]-Piperidide; lactam N-11), with 7.7 nM; and `CCCCN1CC(=O)N(C)[C@@H]([C@@H](C)CC)C(=O)N(C)[C@H](C(=O)N(C)C)CC(=O)N(C)[C@@H](CC(C)C)C(=O)N[C@@H]([C@@H](C)CC)C(=O)N(C)[C@@H](C)C(=O)N2CC[C@H]2C(=O)N(C)[C@@H](Cc2ccc(C)cc2)C(=O)N(C)CC(=O)N[C@@H](CCc2ccc(C(F)(F)F)c(Cl)c2)C(=O)N2CCC[C@H]2C1=O` [Compound 215] ([NMeL]I[NMeA][Aze][NMePhe(4-Me)][Sar][hPhe(3-Cl-4-CF3)]P[NBuGly][NMeI][NMeD]-NMe2; lactam N-11), with 29 nM; and `CC[C@H](C)[C@@H]1NC(=O)[C@H](C)N(C)C(=O)C[C@@H](C)N(C)C(=O)[C@H](CC(C)C)NC(=O)C(C)(C)N(C)C(=O)[C@H](CC(C)C)NC(=O)[C@H](CCc2ccc(C(F)(F)F)cc2)NC(=O)CN(C)C(=O)[C@H](Cc2ccc(Cl)cc2)N(C)C(=O)CN(C)C(=O)CN(C)C1=O` [Compound 323] (cyclo(I[Sar][Sar][NMePhe(4-Cl)][Sar][hPhe(4-CF3)]L[NMeAib]L[NMedβ3hAla][NMeA])), with 140 nM. Then `CC[C@H](C)[C@@H]1NC(=O)[C@H](CC(C)C)N(C)C(=O)C[C@@H](C)N(C)C(=O)[C@H](CC(C)C)NC(=O)C(C)(C)N(C)C(=O)[C@H](CC(C)C)NC(=O)[C@H](CCc2ccc(C(F)(F)F)cc2)NC(=O)CN(C)C(=O)[C@H](Cc2ccc(Cl)cc2)N(C)C(=O)CN(C)C(=O)CN(C)C1=O` [Compound 315] (cyclo(I[Sar][Sar][NMePhe(4-Cl)][Sar][hPhe(4-CF3)]L[NMeAib]L[NMedβ3hAla][NMeL])), with 120 nM; and `CC[C@H](C)[C@@H]1NC(=O)[C@H](CC(C)C)N(C)C(=O)C[C@@H](C(=O)N2CCCCC2)N(C)C(=O)[C@H](C2CCCC2)N(C)C(=O)C2(CCCC2)NC(=O)[C@@H]2CCCN2C(=O)[C@H](CCc2ccc(OC(F)F)c(F)c2)NC(=O)CN(C)C(=O)[C@H](CC2CCCCC2)N(C)C(=O)[C@@H]2CCN2C(=O)[C@H](C)N(C)C1=O` [Compound 2076] ([NMeL]I[NMeA][Aze][NMeCha][Sar][X1]P[Ac5c][NMeGly(cPent)][NMeD]-Piperidide; lactam N-11 (inferred); C-terminus assumed), with 2.5 nM; and `CC[C@H](C)[C@@H]1NC(=O)[C@H](CC(C)C)N(C)C(=O)C[C@@H](C(=O)N2CCCCC2)N(C)C(=O)[C@H](C(C)C)N(C)C(=O)C2(CCCC2)NC(=O)[C@@H]2CCCN2C(=O)[C@H](CCc2ccc(C(F)(F)F)c(Cl)c2)NC(=O)CN(C)C(=O)[C@H](CC2CCCCC2)N(C)C(=O)[C@@H]2CCN2C(=O)[C@H]([C@@H](C)O)N(C)C1=O` [Compound 496] ([NMeL]I[NMeT][Aze][NMeCha][Sar][hPhe(3-Cl-4-CF3)]P[Ac5c][NMeV][NMeD]-Piperidide; lactam N-11), with 10 nM. As for `CC[C@H](C)[C@@H]1NC(=O)[C@H](CC(C)C)N(CC)C(=O)C[C@@H](C(=O)N2CCC2)N(C)C(=O)[C@H](C2CCCC2)N(C)C(=O)C2(CCCC2)NC(=O)[C@@H]2CCCN2C(=O)[C@H](CCc2ccc(C(F)(F)F)c(Cl)c2)NC(=O)CN(C)C(=O)[C@H](CC2CCCCC2)N(C)C(=O)[C@@H]2CCN2C(=O)[C@H](C)NC1=O` [Compound 1262] ([NEtLeu]IA[Aze][NMeCha][Sar][hPhe(3-Cl-4-CF3)]P[Ac5c][NMeGly(cPent)][NMeD]-{Azetidin(1-yl)}; lactam N-11), the IC50 was 1.3 nM. Regarding `CC[C@H](C)[C@@H]1NC(=O)[C@H](CC(C)C)N(C)C(=O)C[C@@H](C(=O)N2CCCCC2)N(C)C(=O)[C@H](CC(C)C)N(C)C(=O)C2(CCCC2)NC(=O)[C@@H]2C[C@H](OCc3cccc(C)c3)CN2C(=O)[C@H](CCc2ccc(C(F)(F)F)c(F)c2)NC(=O)CN(C)C(=O)[C@H](CC2CCCCC2)N(C)C(=O)CN(C)C(=O)CN(C)C1=O` [Compound 2141] ([NMeL]I[Sar][Sar][NMeCha][Sar][hPhe(3-F,4-CF3)][cisHyp](mXylylene)[Ac5c][NMeL][NMeD]-Piperidide; lactam N-11), the IC50 was 72 nM.
